{
  "source": "ChEMBL document CHEMBL5241130",
  "about": "“Integrating a phenotypic screening with a structural simplification strategy to identify 4-phenoxy-quinoline derivatives to potently disrupt the mitotic localization of Aurora kinase B” (Bioorg Med Chem, 2023)",
  "key": {"[1]": {"assay": "Kinetic solubility of the compound in HCl buffer at pH 2.2 measured after 72 hrs by LC-MS analysis", "format": "physicochemical", "settings": "read-out: Kinetic_solubility"}, "[2]": {"molecular_target": "Aurora kinase B (Homo sapiens) (UniProt Q96GD4)", "sequence (Q96GD4 whole entry)": "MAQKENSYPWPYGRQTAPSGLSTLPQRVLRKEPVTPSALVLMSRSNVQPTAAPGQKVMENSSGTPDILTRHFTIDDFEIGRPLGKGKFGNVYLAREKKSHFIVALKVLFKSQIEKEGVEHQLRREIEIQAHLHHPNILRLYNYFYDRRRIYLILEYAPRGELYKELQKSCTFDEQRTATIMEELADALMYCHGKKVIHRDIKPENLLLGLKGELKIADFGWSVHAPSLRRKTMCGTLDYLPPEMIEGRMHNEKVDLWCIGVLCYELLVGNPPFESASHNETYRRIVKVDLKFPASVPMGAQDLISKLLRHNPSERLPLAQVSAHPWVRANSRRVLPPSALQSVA", "assay": "Disruption of mitotic localization of AURKB at the spindle mid-zone and equatorial cortex in human RPE-MYC cells expressing BCL2 at 40 nM measured after 6 hrs by immunofluorescence staining analysis", "format": "cell-based"}, "[3]": {"assay": "Drug degradation in PBS buffer at pH 7.4 measured after 72 hrs by LC-MS analysis", "format": "physicochemical", "settings": "read-out: Drug degradation"}, "A549": {"tested_on": "A549", "assay": "Cytotoxicity against human A549 cells assessed as cell growth inhibition incubated for 3 days by MTT assay", "format": "functional, cell-based", "settings": "time 3.0 day"}, "[4]": {"assay": "Half life in Wistar rat at 2 mg/kg, iv measured for 24 hrs by LC-MS/MS analysis", "format": "ADME, organism-based", "settings": "in vivo"}, "SW480": {"tested_on": "SW480", "assay": "Cytotoxicity against human SW480 cells assessed as cell growth inhibition incubated for 3 days by MTT assay", "format": "functional, cell-based", "settings": "time 3.0 day"}, "[5]": {"molecular_target": "Serine/threonine-protein kinase PLK3 (Homo sapiens) (UniProt Q9H4B4)", "sequence (Q9H4B4 whole entry, looked up)": "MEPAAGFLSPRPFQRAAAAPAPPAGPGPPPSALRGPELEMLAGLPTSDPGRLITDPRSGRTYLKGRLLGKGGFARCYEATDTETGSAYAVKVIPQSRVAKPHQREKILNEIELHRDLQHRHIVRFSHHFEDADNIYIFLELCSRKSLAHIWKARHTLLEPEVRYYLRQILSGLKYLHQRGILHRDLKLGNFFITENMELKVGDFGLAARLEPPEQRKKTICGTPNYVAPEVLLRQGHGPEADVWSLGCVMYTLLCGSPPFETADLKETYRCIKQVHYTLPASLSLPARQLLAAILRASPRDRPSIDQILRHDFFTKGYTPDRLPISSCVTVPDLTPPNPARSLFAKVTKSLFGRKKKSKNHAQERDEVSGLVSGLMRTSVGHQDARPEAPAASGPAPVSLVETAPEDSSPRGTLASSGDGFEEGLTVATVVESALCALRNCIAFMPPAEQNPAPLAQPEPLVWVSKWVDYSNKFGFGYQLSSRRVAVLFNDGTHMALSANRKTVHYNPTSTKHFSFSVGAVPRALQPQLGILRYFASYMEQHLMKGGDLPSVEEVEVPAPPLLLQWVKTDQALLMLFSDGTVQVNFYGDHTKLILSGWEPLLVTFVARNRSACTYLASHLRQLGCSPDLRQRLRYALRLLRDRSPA", "assay": "Inhibition of PLK3 (unknown origin) by bio-chip based analysis"}, "[6]": {"molecular_target": "Aurora kinase B (Homo sapiens) (UniProt Q96GD4)", "assay": "Disruption of mitotic localization of AURKB in human RPE-MYC H2B-GFP cells assessed as induction of mitotic arrest by fluorescence high content cell imaging analysis", "format": "cell-based"}, "[7]": {"molecular_target": "Discoidin domain-containing receptor 2 (Homo sapiens) (UniProt Q16832)", "sequence (Q16832 whole entry, the tested form may be a part)": "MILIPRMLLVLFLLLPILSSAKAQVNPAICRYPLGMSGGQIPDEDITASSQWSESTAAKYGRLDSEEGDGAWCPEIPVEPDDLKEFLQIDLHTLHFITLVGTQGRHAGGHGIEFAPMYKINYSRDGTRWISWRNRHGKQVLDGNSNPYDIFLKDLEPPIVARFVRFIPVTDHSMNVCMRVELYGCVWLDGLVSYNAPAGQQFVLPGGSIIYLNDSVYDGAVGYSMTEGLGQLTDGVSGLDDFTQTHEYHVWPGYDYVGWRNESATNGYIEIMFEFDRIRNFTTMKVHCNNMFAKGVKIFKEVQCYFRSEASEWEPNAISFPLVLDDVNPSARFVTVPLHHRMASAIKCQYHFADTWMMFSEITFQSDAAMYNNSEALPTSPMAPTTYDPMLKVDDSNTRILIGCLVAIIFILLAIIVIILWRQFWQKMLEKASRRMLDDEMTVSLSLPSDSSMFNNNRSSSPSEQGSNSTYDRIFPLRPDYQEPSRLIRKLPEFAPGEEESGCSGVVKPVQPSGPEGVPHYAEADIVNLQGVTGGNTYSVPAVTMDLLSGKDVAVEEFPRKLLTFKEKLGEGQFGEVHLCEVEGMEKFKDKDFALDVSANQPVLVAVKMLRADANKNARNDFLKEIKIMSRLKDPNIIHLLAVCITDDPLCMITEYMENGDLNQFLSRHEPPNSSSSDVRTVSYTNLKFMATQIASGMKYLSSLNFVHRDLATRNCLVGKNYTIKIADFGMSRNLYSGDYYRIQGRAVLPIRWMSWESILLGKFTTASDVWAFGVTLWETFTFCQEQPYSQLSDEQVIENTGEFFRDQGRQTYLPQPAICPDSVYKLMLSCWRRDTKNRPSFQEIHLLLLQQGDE", "assay": "Inhibition of human recombinant DDR2 at 2 uM by KINOMEscan assay"}, "[8]": {"tested_on": "Tyrosine-protein kinase ABL1 (Homo sapiens), P00519 [F317L]", "assay": "Inhibition of human recombinant ABL1 F317L mutant at 2 uM by KINOMEscan assay"}, "[9]": {"assay": "Plasma concentration in BALB/c nude mouse xenografted with human HCT-116 cells administered as single dose and measured after 6 hrs by LC-MS/MS analysis", "format": "ADME"}, "[10]": {"assay": "Lipophilicity, log D of the compound in Octanol and PBS buffer at pH 7.4 incubated for 24 hrs under shaking condition followed by incubation for 1 hr without shaking by LC-MS analysis", "format": "physicochemical"}, "[11]": {"assay": "Cmax in Wistar rat at 20 mg/kg, po measured for 24 hrs by LC-MS/MS analysis", "format": "ADME, organism-based", "design": "time 24 hrs, dose 20 mg/kg, route po", "settings": "in vivo"}, "[12]": {"molecular_target": "Aurora kinase B (Homo sapiens) (UniProt Q96GD4)", "assay": "Disruption of kinetochore localization of AURKB during anaphase of human RPE-MYC cells expressing BCL2 at 40 nM measured after 6 hrs by immunofluorescence staining analysis", "format": "cell-based"}, "[13]": {"molecular_target": "Rho-associated protein kinase 1 (Homo sapiens) (UniProt Q13464)", "sequence (Q13464 2-1354 limits assumed)": "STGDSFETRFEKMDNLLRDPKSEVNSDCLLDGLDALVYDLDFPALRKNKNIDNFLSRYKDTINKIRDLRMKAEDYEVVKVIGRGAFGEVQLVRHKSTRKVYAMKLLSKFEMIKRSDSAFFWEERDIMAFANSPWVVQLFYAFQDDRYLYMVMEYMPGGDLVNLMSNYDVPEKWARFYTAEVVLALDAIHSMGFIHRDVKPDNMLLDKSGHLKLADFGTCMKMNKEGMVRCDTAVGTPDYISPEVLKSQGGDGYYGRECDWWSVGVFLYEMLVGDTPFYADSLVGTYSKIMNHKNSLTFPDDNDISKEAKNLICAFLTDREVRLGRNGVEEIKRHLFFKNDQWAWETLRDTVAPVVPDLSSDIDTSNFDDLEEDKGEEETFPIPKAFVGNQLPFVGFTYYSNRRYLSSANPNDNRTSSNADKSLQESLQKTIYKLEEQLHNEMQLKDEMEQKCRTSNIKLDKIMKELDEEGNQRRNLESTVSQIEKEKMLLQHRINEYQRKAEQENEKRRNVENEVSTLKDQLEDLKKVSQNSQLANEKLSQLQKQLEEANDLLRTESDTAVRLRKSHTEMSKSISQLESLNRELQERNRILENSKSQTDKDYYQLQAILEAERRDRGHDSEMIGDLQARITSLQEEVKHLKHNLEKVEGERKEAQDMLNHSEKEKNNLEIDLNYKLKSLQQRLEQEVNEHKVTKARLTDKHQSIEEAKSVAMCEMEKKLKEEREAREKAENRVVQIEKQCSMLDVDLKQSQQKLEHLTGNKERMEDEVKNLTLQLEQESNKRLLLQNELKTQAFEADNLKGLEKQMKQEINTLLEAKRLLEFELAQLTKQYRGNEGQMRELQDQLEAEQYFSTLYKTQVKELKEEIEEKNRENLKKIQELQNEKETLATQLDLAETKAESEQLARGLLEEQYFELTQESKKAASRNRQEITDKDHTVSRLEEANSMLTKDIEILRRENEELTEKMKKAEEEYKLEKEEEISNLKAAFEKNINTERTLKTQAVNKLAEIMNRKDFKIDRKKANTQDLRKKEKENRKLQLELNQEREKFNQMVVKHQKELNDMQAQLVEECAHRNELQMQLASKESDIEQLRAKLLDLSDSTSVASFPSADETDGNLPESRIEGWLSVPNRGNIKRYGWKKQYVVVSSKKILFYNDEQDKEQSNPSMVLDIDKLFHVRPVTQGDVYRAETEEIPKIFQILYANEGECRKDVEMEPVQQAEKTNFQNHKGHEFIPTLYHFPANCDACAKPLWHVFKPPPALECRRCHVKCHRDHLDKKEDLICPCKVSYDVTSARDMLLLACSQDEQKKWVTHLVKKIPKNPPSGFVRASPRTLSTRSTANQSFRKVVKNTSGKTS", "assay": "Inhibition of ROCK1 (unknown origin) by bio-chip based analysis"}, "HCT-116": {"tested_on": "HCT-116", "assay": "Cytotoxicity against human HCT-116 cells assessed as cell growth inhibition incubated for 3 days by MTT assay", "format": "functional, cell-based", "settings": "time 3.0 day"}, "[14]": {"assay": "Volume of distribution at steady state in Wistar rat at 2 mg/kg, iv measured after 24 hrs by LC-MS/MS analysis", "format": "ADME, organism-based", "settings": "in vivo, read-out: Vdss"}, "[15]": {"assay": "Ratio of drug uptake in tumor of BALB/c nude mouse xenografted with human HCT-116 cells at 50 mg/kg, po bid for 7 days and measured at 6 hrs post-last drug administration to MEC for disruption of mitotic localization of AURKB in human RPE-MYC H2B-GFP cells assessed as induction of mitotic arrest measured after 24 hrs"}, "Mus musculus [16]": {"tested_on": "Mus musculus", "assay": "Induction of mitotic arrest in BALB/c nude mouse xenografted with human HCT-116 cells assessed as increase in mitotic index by measuring increase in accumulation of H3Ser10P positive cells in tumor at 50 mg/kg, po bid for 7 days by immunohistochemical staining based analysis relative to control", "format": "functional", "settings": "time 7 day"}, "[17]": {"tested_on": "Tyrosine-protein kinase ABL1 (Homo sapiens), P00519 [H396P]", "assay": "Inhibition of human recombinant ABL1 H396P mutant at 2 uM by KINOMEscan assay"}, "Mus musculus [18]": {"tested_on": "Mus musculus", "assay": "Induction of polyploidy in BALB/c nude mouse xenografted with human HCT-116 cells assessed as increase in polyploid cells in tumor at 50 mg/kg, po bid for 7 days by immunohistochemical staining based analysis relative to control", "format": "functional", "settings": "time 7 day"}, "[19]": {"molecular_target": "Aurora kinase B (Homo sapiens) (UniProt Q96GD4)", "assay": "Inhibition of AURKB in human RPE-MYC cells expressing BCL2 assessed as inhibition of histone H3 phosphorylation at Ser10 residue at 40 nM measured after 6 hrs by immunofluorescence staining analysis", "format": "cell-based"}, "MDA-MB-231": {"tested_on": "MDA-MB-231", "assay": "Cytotoxicity against human MDA-MB-231 cells assessed as cell growth inhibition incubated for 3 days by MTT assay", "format": "functional, cell-based", "settings": "time 3.0 day"}, "[20]": {"assay": "Drug degradation in human plasma at 1 to 10 uM incubated for 2 hrs by LC-MS analysis", "format": "ADME, cell-free", "settings": "dose 1-10 µM, read-out: Drug degradation"}, "[21]": {"molecular_target": "Aurora kinase B (Homo sapiens) (UniProt Q96GD4)", "assay": "Disruption of mitotic localization of AURKB in human RPE-MYC cells expressing BCL2 assessed as disruption of MKLP1 localization at spindle mid-zone at 40 nM measured after 6 hrs by immunofluorescence staining analysis", "format": "cell-based"}, "[22]": {"assay": "Apparent volume of distribution in Wistar rat at 2 mg/kg, iv measured after 24 hrs by LC-MS/MS analysis", "format": "ADME, organism-based", "settings": "in vivo, read-out: Vz"}, "NCI-N87": {"tested_on": "NCI-N87", "assay": "Cytotoxicity against human NCI-N87 cells assessed as cell growth inhibition incubated for 3 days by MTT assay", "format": "functional, cell-based", "settings": "time 3.0 day"}, "[23]": {"molecular_target": "Aurora kinase B (Homo sapiens) (UniProt Q96GD4)", "assay": "Disruption of kinetochore localization of AURKB during prophase of human RPE-MYC cells expressing BCL2 at 40 nM measured after 6 hrs by immunofluorescence staining analysis", "format": "cell-based"}, "[24]": {"molecular_target": "Aurora kinase B (Homo sapiens) (UniProt Q96GD4)", "assay": "Disruption of mitotic localization of AURKB in human RPE-MYC cells expressing BCL2 assessed as mitotic index at 40 nM measured after 6 hrs by fluorescence high content cell imaging analysis (reference value: 5.3%)", "format": "cell-based"}, "[25]": {"assay": "Ratio of drug uptake in tumor of BALB/c nude mouse xenografted with human HCT-116 cells at 50 mg/kg, po bid for 7 days and measured at 6 hrs post-last drug administration to MEC for Disruption of mitotic localization of AURKB in human RPE-MYC H2B-GFP cells assessed as induction of polyploidy"}, "[26]": {"assay": "Clearance in Wistar rat at 20 mg/kg, po measured for 24 hrs by LC-MS/MS analysis", "format": "ADME, organism-based", "settings": "in vivo"}, "[27]": {"assay": "MRT (0 to infinity) in Wistar rat at 2 mg/kg, iv by LC-MS/MS analysis", "format": "ADME, organism-based", "settings": "in vivo"}, "[28]": {"molecular_target": "Serine/threonine-protein kinase PLK4 (Homo sapiens) (UniProt O00444)", "sequence (O00444 whole entry)": "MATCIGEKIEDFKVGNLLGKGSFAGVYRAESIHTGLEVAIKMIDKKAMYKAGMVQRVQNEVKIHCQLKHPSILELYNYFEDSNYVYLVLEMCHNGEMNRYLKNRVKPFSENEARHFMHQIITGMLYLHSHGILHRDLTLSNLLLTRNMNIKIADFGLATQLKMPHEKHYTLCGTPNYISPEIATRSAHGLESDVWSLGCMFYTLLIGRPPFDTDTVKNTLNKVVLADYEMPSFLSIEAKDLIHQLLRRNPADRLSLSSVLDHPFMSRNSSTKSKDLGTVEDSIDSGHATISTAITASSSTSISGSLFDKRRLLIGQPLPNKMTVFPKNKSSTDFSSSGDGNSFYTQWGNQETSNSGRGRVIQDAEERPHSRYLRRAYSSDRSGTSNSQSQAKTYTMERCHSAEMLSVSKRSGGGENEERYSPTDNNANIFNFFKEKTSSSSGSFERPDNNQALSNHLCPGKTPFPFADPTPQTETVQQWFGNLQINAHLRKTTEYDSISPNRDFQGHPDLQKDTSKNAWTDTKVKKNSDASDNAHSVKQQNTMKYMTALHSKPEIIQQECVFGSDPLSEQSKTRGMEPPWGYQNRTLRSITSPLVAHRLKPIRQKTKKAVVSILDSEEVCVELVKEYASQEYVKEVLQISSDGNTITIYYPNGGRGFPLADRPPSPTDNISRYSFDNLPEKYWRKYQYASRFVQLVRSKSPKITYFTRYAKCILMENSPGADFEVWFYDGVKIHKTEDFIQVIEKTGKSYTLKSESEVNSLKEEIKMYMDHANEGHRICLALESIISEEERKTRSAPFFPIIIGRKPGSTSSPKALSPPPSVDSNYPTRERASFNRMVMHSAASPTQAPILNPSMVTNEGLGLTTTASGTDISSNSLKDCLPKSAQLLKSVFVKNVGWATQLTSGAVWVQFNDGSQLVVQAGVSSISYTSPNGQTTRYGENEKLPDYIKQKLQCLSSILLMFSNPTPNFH", "assay": "Inhibition of PLK4 (unknown origin) by bio-chip based analysis"}, "[29]": {"molecular_target": "Aurora kinase B (Homo sapiens) (UniProt Q96GD4)", "assay": "Disruption of mitotic localization of AURKB in human RPE-MYC H2B-GFP cells assessed as induction of polyploidy by fluorescence high content cell imaging analysis", "format": "cell-based"}, "[30]": {"assay": "Dose normalized AUC (0 to infinity) in Wistar rat at 2 mg/kg, iv by LC-MS/MS analysis", "format": "ADME, organism-based", "settings": "in vivo"}},
  "note": "Active and inactive are the calls of the source. The rule behind the calls is not given here.",
  "data": [
    {"compound": "COc1cc(NC(C)=O)cc(Oc2ccnc3ccc(OC)cc23)c1", "values": [
      {"measurement": "solubility kinetic at 72 h", "setting": "[1]", "value": "> 190", "unit": "µM"},
      {"measurement": "Activity", "setting": "[2]", "value": "Active"},
      {"measurement": "degraded at 72 h", "setting": "[3]", "value": 0, "unit": "%"},
      {"measurement": "Activity", "setting": "A549", "value": "Active"},
      {"measurement": "half-life", "setting": "[4]", "value": 1.09, "unit": "h"},
      {"measurement": "Activity", "setting": "SW480", "value": "Active"},
      {"measurement": "inhibition", "setting": "[5]", "value": "inactive"},
      {"measurement": "Activity", "setting": "[6]", "value": "inactive"},
      {"measurement": "inhibition", "setting": "[7]", "value": "Active"},
      {"measurement": "inhibition", "setting": "[8]", "value": "Active"},
      {"measurement": "concentration at 6 h", "setting": "[9]", "value": 213, "unit": "ng/mL"},
      {"measurement": "logD at 25 h", "setting": "[10]", "value": 3.81},
      {"measurement": "Cmax", "setting": "[11]", "value": 3140, "unit": "ng/mL"},
      {"measurement": "Activity", "setting": "[12]", "value": "Active"},
      {"measurement": "inhibition", "setting": "[13]", "value": "inactive"},
      {"measurement": "Activity", "setting": "HCT-116", "value": "Active"},
      {"measurement": "Vd", "setting": "[14]", "value": 3.7, "unit": "L/kg"},
      {"measurement": "Ratio", "setting": "[15]", "value": 70},
      {"measurement": "fold change (FC)", "setting": "Mus musculus [16]", "value": 6.7},
      {"measurement": "inhibition", "setting": "[17]", "value": "Active"},
      {"measurement": "fold change (FC)", "setting": "Mus musculus [18]", "value": 1.7},
      {"measurement": "inhibition", "setting": "[19]", "value": "inactive"},
      {"measurement": "Activity", "setting": "MDA-MB-231", "value": "Active"},
      {"measurement": "metabolised at 2 h, up to 10 µM", "setting": "[20]", "value": 0, "unit": "%"},
      {"measurement": "Activity", "setting": "[21]", "value": "Active"},
      {"measurement": "Vd", "setting": "[22]", "value": 2.78, "unit": "L/kg"},
      {"measurement": "Activity", "setting": "NCI-N87", "value": "Active"},
      {"measurement": "Activity", "setting": "[23]", "value": "inactive"},
      {"measurement": "Activity", "setting": "[24]", "value": 15.3, "unit": "%"},
      {"measurement": "Ratio", "setting": "[25]", "value": 70},
      {"measurement": "CL/F", "setting": "[26]", "value": 54.7, "unit": "mL/min/kg"},
      {"measurement": "MRT inf", "setting": "[27]", "value": 2.09, "unit": "h"},
      {"measurement": "inhibition", "setting": "[28]", "value": "inactive"},
      {"measurement": "MEC", "setting": "[29]", "value": 0.01, "unit": "µM"},
      {"measurement": "AUC/dose", "setting": "[30]", "value": 517.74, "unit": "ng·h/mL/mg/kg"}
    ]}
  ]
}
